Measurements published in US7094911B2, “Biphenyl and biphenyl-analogous compounds as integrin antagonists” (Bayer Aktiengesellschaft, priority 1998, dated 2006).

Assays:
αvβ3 receptor = conditions: WO 98/00395, second value; cited from earlier work
ανβ3 receptor = target: T1, ανβ3 receptor (Homo sapiens, UniProt P05106+P06756); assay: Binding to the αvβ3 receptor (echistatin SPA); conditions: ανβ3 purified from human A375 cells, labelled echistatin, WGA SPA beads; read-out: avb3 IC50
T1 construct: ανβ3 from human A375 cells were purified according to a procedure described by Wong et al; endogenous in cells; host or cells: human A375 cells (receptor purified from the cells, detergent-solubilised)
T1 sequence (P06756 31-889 limits assumed): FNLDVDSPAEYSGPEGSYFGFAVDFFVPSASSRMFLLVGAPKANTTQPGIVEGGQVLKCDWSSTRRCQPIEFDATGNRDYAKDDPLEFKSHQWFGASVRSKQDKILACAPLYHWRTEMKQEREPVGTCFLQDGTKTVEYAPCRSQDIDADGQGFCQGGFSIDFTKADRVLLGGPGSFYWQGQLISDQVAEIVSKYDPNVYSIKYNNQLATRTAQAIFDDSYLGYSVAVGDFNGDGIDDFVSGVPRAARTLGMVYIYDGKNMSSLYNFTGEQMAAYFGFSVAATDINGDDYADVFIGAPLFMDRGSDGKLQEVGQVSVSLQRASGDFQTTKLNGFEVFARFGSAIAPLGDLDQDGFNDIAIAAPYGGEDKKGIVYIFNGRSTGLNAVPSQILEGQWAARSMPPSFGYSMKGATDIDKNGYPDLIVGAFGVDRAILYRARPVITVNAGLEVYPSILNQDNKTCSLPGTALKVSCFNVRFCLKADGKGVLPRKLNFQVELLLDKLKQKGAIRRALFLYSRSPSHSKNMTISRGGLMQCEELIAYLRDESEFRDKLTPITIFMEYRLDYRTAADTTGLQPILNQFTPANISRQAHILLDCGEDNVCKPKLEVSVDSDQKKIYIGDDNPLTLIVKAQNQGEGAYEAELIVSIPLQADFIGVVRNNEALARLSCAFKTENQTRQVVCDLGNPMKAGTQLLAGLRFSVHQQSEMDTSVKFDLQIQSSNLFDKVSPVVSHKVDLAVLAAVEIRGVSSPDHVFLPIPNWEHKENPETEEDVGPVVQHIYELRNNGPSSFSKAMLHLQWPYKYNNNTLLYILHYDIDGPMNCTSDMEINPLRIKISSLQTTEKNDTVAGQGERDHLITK
T1 sequence (P06756 891-1048 partner limits assumed): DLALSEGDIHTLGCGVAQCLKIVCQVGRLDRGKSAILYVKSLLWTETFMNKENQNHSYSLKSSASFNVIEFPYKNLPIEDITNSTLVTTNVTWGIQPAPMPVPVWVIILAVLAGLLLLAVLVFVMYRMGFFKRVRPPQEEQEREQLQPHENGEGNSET
T1 sequence (P05106 27-788): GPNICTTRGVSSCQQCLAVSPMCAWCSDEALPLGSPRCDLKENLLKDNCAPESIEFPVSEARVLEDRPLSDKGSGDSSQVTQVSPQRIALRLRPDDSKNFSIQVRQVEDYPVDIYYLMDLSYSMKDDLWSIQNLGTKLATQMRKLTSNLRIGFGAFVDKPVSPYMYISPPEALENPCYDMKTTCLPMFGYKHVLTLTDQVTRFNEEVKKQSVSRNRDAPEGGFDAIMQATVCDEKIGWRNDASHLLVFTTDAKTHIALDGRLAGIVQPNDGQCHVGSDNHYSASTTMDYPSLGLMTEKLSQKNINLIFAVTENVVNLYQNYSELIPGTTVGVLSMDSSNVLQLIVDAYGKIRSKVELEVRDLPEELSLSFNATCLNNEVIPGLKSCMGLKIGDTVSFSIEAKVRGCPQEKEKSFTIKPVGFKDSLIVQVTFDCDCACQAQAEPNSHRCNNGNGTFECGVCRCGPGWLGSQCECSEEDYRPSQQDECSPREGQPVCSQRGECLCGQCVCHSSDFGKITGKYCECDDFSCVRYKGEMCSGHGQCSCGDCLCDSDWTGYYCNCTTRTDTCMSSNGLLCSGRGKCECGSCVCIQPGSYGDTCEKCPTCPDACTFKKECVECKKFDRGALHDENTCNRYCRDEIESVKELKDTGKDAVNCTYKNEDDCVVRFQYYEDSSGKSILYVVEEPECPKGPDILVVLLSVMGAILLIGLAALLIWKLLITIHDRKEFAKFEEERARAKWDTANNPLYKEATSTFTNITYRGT
Experimental: Biological Investigations a) Binding to the ανβ3 Receptor
10 μl ανβ3 (5 ng) in TBS pH 7.6, 2 mM CaCl2, 1 mM MgCl2, 1% n/octylglucopyranoside; 10 μl of the substance to be tested in TBS pH 7.6, 0.1% dimethylsulfoxide (DMSO), and 45 μl TBS pH 7.6, 2 mM CaCl2, 1 MM MgCl2, 1 mM MnCl2 were each incubated for 1 h at room temperature.

smooth muscle cells = assay: Smooth muscle cell (SMC) migration test; format: cell-based, humans or rats; conditions: horizontal migration on vitronectin-coated plates, 24 hours; human or rat cells not specified
Experimental: b) Smooth Muscle Cell (SMC) Migration Test
Smooth muscle cells from humans or rats were used. The migration of the cells was determined in a horizontal measuring arrangement (Falcon).
The horizontal migration was determined in 6-well plates coated with vitronectin (1 μg/cm^2). The cells were suspended in a medium (DMEM:F12/0, 12% BSA-rat smooth muscle cells or MCDB 131 with 0.2% BSA-human smooth muscle cells), inoculated and allowed to grow to confluence. Half of the smooth muscle cell lawn was then scraped off, and the cells were treated with different concentrations of the test compounds. The mixtures were incubated for 24 hours at 37° C. in the presence of 5% CO2 After the incubation, the smooth muscle cell migration was determined by measurement of the migration distance and the cell density of the migrated cells.

SMILES	melting point	further results
CC1(C)C2CCC1(CS(=O)(=O)NC(Cc1ccc(OCCCC(=O)NC(=N)N)cc1)C(=O)O)C(=O)C2 (stereo not drawn) [(I)]		IC50 (αvβ3 receptor): 0.16 nM
CC1(C)[C@@H]2CC[C@@]1(CS(=O)(=O)N[C@@H](Cc1ccc(-c3cccc(NC(=O)Nc4cccnc4)c3)cc1)C(=O)O)C(=O)C2 [Example 1.73, (2S)-3-[3′-(3-Pyridin-3-yl-ureido)-biphenyl-4-yl]-2-[(S)-campher-10-yl-sulfonylamino]-propanoic acid]		IC50 (ανβ3 receptor): 2 nM; IC50 (smooth muscle cells): 3 to 40 nM
O=C(O)CC(NS(=O)(=O)c1cccc(-c2cccc(Nc3c(NCc4ccccn4)c(=O)c3=O)c2)c1)c1ccccc1 (stereo not drawn) [Example 13.8]	149 °C (dec.)	
CS(=O)(=O)N[C@@H](Cc1ccc(-c2cccc(Nc3c(NC4CC4)c(=O)c3=O)c2)cc1)C(=O)O [Example 13.9]	210 °C (dec.)	
O=C(O)CC(NS(=O)(=O)c1cccc(-c2cccc(Nc3c(NCC(F)(F)F)c(=O)c3=O)c2)c1)c1cccnc1 (stereo not drawn) [Example 13.11]	219 °C (dec.)	
O=C(O)CC(NS(=O)(=O)c1cccc(-c2cccc(Nc3nccs3)c2)c1)c1ccccc1 (stereo not drawn) [Example 15.1.2, 3-phenyl-3-{[3′-(1,3-thiazol-2-ylamino)[1,1′-biphenyl]-3-yl]sulfonylamino}-propanoic acid]	130 °C (dec.)	
Cc1cc(C)c(S(=O)(=O)N[C@@H](Cc2ccc(-c3cccc(Nc4nc5ccccc5[nH]4)c3)cc2)C(=O)O)c(C)c1 [Example 16.1.3, (2S)-3-[3′-(1H-benzimidazol-2-ylamino)[1,1′-biphenyl]-4-yl]-2-[(mesitylsulfonyl)amino]propanoic acid]	190 °C (dec.)	
Cc1cc(C)c(S(=O)(=O)N[C@@H](Cc2ccc(-c3cccc(Nc4n[s+]([O-])nc4NC4CC4)c3)cc2)C(=O)O)c(C)c1 (stereo partly drawn) [Example 17.1.3, (2S)-2-[(Mesitylsulfonyl)amino]-3-(3′-{[4-(cyclopropylamino)-1-oxo-1H-1[lambda]4,2,5-thiadiazol-3-yl]amino}[1,1′-biphenyl]-4-yl)-propanoic acid]	180 °C (dec.)	
COc1ccc(-c2cccc(CNc3ccccn3)c2)cc1S(=O)(=O)NC(CC(=O)O)c1ccccc1 (stereo not drawn) [Example 18.3]	138 °C	
Cc1cc(C)c(S(=O)(=O)N[C@@H](Cc2ccc(-c3cccc(CNc4nc5ccccc5[nH]4)c3)cc2)C(=O)O)c(C)c1 [Example 18.4]	> 240 °C	
COc1ccc(-c2cccc(CNc3nc4ccccc4[nH]3)c2)cc1S(=O)(=O)NC(CC(=O)O)c1ccccc1 (stereo not drawn) [Example 18.5]	> 240 °C	
CCS(=O)(=O)N[C@@H](Cc1ccc(-c2cccc(CNc3ccccn3)c2)cc1)C(=O)O [Example 18.7]	> 240 °C	
O=C(O)[C@H](Cc1ccc(-c2cccc(CNc3ccccn3)c2)cc1)NS(=O)(=O)c1ccc(F)cc1 [Example 18.8]	> 240 °C	
O=C(O)[C@H](Cc1ccc(-c2cccc(CNc3ccccn3)c2)cc1)NS(=O)(=O)c1cccs1 [Example 18.9]	> 240 °C	
O=C(O)[C@H](Cc1ccc(-c2cccc(CNc3ccccn3)c2)cc1)NS(=O)(=O)Cc1ccc(F)cc1 [Example 18.10]	> 240 °C	
O=C(O)[C@H](Cc1ccc(-c2cccc(CNc3ccccn3)c2)cc1)NS(=O)(=O)C1CC1 [Example 18.11]	> 240 °C	
O=C(O)[C@H](Cc1ccc(-c2cccc(CNc3ccccn3)c2)cc1)NS(=O)(=O)c1c(F)cccc1F [Example 18.12]	> 240 °C	
O=C(O)[C@H](Cc1ccc(-c2cccc(CNc3ccccn3)c2)cc1)NS(=O)(=O)c1c(Cl)cccc1Cl [Example 18.13]	> 240 °C	
O=C(O)[C@H](Cc1ccc(-c2cccc(CNc3ccccn3)c2)cc1)NS(=O)(=O)c1ccc(Cl)s1 [Example 18.14]	> 240 °C	
Cc1cc(C)c(S(=O)(=O)N[C@@H](Cc2ccc(-c3cccc(NC(=O)c4ccc[nH]4)c3)cc2)C(=O)O)c(C)c1 [Example 19.2]	140 °C (dec.)	
COc1ccc(-c2cccc(NC(=O)c3ccc[nH]3)c2)cc1S(=O)(=O)NC(CC(=O)O)c1ccccc1 (stereo not drawn) [Example 19.3]	234 °C	
Cc1cc(C)c(S(=O)(=O)N[C@@H](Cc2ccc(-c3cccc(NC(=O)c4cccnc4)c3)cc2)C(=O)O)c(C)c1 [Example 19.4]	> 240 °C	
COc1ccc(-c2cccc(NC(=O)c3ncc[nH]3)c2)cc1S(=O)(=O)NC(CC(=O)O)c1ccccc1 (stereo not drawn) [Example 19.5]	> 200 °C	
CC1(C)C2CC[C@@]1(CS(=O)(=O)N[C@@H](Cc1ccc(-c3cccc(Nc4ncccc4[N+](=O)[O-])c3)cc1)C(=O)O)C(=O)C2 [Example 20.3]	207 °C	
COc1ccc(-c2cccc(Nc3ncccc3N)c2)cc1S(=O)(=O)NC(CC(=O)O)c1ccccc1 (stereo not drawn) [Example 20.4]	> 240 °C	
COc1ccc(-c2cccc(Nc3ccccn3)c2)cc1S(=O)(=O)NC(CC(=O)O)c1ccccc1 (stereo not drawn) [Example 20.5]	> 240 °C	
